Experimental data taken from patent publication KR20130112248A, “피라졸로피리미딘 유도체 화합물, 이를 포함하는 산화질소 생성 억제용 조성물 및 뇌신경 질환 예방 및 치료용 약학적 조성물” (한국과학기술연구원, priority 2012, dated 2013).

The compounds below were run on NO production in BV-2 cells [NO 생성; BV-2 세포] (assay: Nitric oxide (NO) quantification (nitrite, Griess reaction) in LPS-activated BV-2 cells). Settings: 20 μM, LPS 0.2 ㎍/mL, 24 h co-treatment, nitrite by Griess at 540 nm.
Assay type: cell-based

| Compound | NO (% of LPS) |
| --- | --- |
| N-(2-메톡시벤질)-6-(메틸설파이닐)-1-페닐-1H-피라졸로[3,4-d]피리미딘-4-아민 [화합물 22c] | 55±4 % of LPS |
| N-(2-메톡시벤질)-6-(메틸설포닐)-1-페닐-1H-피라졸로[3,4-d]피리미딘-4-아민 [화합물 23d] | 35±7.4 % of LPS |
| N-(2-클로로벤질)-6-(메틸설파이닐)-1-페닐-1H-피라졸로[3,4-d]피리미딘-4-아민 [화합물 22f] | 58±3.7 % of LPS |
| N-벤질-1-메틸-6-(메틸티오)피라졸로[3,4-d]피리미딘-4-아민 [화합물 12n] | 51±1 % of LPS |

Same assay, conditions: Mus musculus, BV-2, 24 h, 20 μM, LPS 0.2 ㎍/mL, 24 h co-treatment, nitrite by Griess at 540 nm

| Compound | activity at 20 µM [%] |
| --- | --- |
| CSc1nc(NCc2ccccn2)c2c(-c3ccccc3)nn(-c3ccccc3)c2n1 [화합물 31f, 1-페닐-3-페닐-4-(피리딘-2-일)메틸아미노-6-(메틸티오)피라졸로[3,4-d]피리미딘] | 100 ± 5 |
| C=CCNc1nc(SC)nc2c1c(-c1ccccc1)nn2-c1ccccc1 [화합물 31g, 1-페닐-3-페닐-4-알릴아미노-6-(메틸티오)피라졸로[3,4-d]피리미딘] | 71 ± 3 |
